We go through 33 compounds from patent publication US8377943B2, “2,4-diaminopyrimidine derivates as PTK2-inhibitors for the treatment of abnormal cell growth” (Boehringer Ingelheim International GmbH, priority 2008, dated 2013).

pEC50, pIC50: −log10 of the molar value.

One test concerns the target T1, PTK2 (Homo sapiens, UniProt Q05397).
T1 construct: purchased Invitrogen PV3832
The test can be described thus: PTK2 Enzyme Test (DELFIA assay, poly-Glu-Tyr substrate). It is filed as biochemical. The following applies: active PTK2 enzyme, 50 μM ATP in ATP Mix, 1 h pre-incubation. In outline:
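Active PTK2 (0.01 μg/well) pre-incubated 1 h at RT with compound, then reacted 1 h with 50 μM ATP (in ATP mix) and poly(Glu,Tyr) 4:1 substrate, 2% DMSO final, pH 7.5. Biotinylated product captured on streptavidin, detected by Eu-PY20 time-resolved fluorescence; IC50 by sigmoidal fit, variable Hill slope.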

For test [1], the target named is T2, PTK2-phosphorylation at tyrosine 397 (pY397) (Homo sapiens, UniProt Q05397).
T2 construct: endogenous in cells; host or cells: PC-3 (ATCC CRL-1435)
The experiment in a line: Phospho-PTK2 (pY397) Assay in PC-3 cells. In kind it is cell-based. Particulars: PC-3 prostate carcinoma cells, 2 h incubation; read-out: PC3pPTK2 Y397 EC50. In outline: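 PC-3 cells (2×10^4/well, F12K + 10% FCS) exposed to compound (about 0.8 nM–50 μM, 1% DMSO final) for 2 h at 37 °C. Then formaldehyde-fixed and immunostained with anti-pY397 PTK2 (total PTK2 control) and an HRP secondary. EC50 from sigmoidal fit with variable Hill slope.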

T2 sequence (Q05397 whole entry): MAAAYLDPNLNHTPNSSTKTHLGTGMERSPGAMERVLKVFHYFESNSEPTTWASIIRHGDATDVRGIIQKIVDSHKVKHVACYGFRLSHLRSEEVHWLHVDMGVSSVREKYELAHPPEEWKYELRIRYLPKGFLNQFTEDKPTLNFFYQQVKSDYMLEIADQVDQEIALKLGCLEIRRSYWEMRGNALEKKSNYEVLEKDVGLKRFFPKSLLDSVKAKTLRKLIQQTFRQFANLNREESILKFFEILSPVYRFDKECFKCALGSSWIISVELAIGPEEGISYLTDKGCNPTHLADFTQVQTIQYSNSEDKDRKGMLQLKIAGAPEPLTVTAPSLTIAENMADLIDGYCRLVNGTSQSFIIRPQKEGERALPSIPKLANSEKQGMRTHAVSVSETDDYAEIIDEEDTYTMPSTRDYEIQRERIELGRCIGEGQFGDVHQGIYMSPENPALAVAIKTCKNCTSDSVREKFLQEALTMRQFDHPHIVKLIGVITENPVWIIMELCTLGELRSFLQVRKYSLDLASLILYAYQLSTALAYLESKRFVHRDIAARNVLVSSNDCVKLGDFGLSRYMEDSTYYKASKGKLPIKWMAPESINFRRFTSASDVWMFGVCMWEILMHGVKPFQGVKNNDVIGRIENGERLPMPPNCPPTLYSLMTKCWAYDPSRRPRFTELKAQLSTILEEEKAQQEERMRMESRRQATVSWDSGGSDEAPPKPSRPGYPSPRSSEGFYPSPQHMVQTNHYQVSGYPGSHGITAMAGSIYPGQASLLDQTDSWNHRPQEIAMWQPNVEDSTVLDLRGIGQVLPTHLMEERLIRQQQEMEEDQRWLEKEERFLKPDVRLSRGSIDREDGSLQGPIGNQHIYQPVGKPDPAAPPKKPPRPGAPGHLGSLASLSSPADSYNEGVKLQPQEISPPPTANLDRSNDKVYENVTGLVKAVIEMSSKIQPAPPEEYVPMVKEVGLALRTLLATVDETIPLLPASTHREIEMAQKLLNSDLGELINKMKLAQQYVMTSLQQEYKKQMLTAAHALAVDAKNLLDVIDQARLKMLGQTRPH
T1 sequence (Q05397 whole entry): as above

Compound `COc1cc(CNC2CC2)ccc1Nc1ncc(C(F)(F)F)c(NCc2ccc(C)cc2N(C)S(C)(=O)=O)n1` [Example 72] showed a pIC50 against PTK2 of 8.52. The pEC50 in test [1] is 9.12.

`COc1cc(C(=O)NC2CCN(C)CC2)ccc1Nc1ncc(C(F)(F)F)c(NCc2ccc(C)cc2N(C)S(C)(=O)=O)n1` [Example 73, 4-{4-[2-(methanesulphonyl-methyl-amino)-4-methyl-benzylamino]-5-trifluoromethyl-pyrimidin-2-ylamino}-3-methoxy-N-(1-methyl-piperidin-4-yl)-benzamide] gave a negative-log IC50 (pIC50) against PTK2 of 9.00. Also, the pEC50 in test [1] is 9.11.

In the case of `COc1cc(C(=O)N[C@@H]2CN3CCC2CC3)ccc1Nc1ncc(C(F)(F)F)c(NCc2ccc(C)cc2N(C)S(C)(=O)=O)n1` [Example 74], on PTK2, the pIC50 was 8.52. In addition, the pEC50 in test [1] was 9.10.

At PTK2, `COc1cc(N2CCN(C(C)C)CC2)ccc1Nc1ncc(C(F)(F)F)c(NCc2ccc(F)cc2N(C)S(C)(=O)=O)n1` [Example 75] showed a pIC50 of 9.00. In addition, the pEC50 in test [1] was 9.08.

`COc1cc(C(=O)N[C@H]2CC[C@H](N3CCOCC3)CC2)ccc1Nc1ncc(C(F)(F)F)c(NCc2ccc(C)cc2N(C)S(C)(=O)=O)n1` [Example 76] showed a pIC50 on PTK2 of 8.70. Moreover, in test [1], the pEC50 is 9.06.

Compound `COc1cc(C(=O)NC2CCN(C)CC2)c(Cl)cc1Nc1ncc(C(F)(F)F)c(NCc2ccc(C)cc2N(C)S(C)(=O)=O)n1` [Example 78] showed a pIC50 at PTK2 of 8.40. In addition, in test [1], the pEC50 is 9.03.

Turning to `COc1cc(N2CCN(C)CC2)ccc1Nc1ncc(C(F)(F)F)c(NCc2ccc(C)cc2N(C)S(C)(=O)=O)n1` [Example 79], on PTK2, the pIC50 is 8.70. Moreover, the pEC50 in test [1] is 9.00.

With `Cc1ccc(CNc2nc(Nc3ccc(C(=O)NC4CCN(C)CC4)cc3C)ncc2C(F)(F)F)c(N(C)S(C)(=O)=O)c1` [Example 80], on PTK2, the negative-log IC50 (pIC50) was 9.01. In addition, the pEC50 in test [1] was 9.00.

Turning to `CNC(=O)c1ccc(Nc2ncc(C(F)(F)F)c(NCc3ccc(OC)cc3N(C)S(C)(=O)=O)n2)c(OC)c1` [Example 81], the negative logarithm of the IC50 (pIC50) against PTK2 is 9.00. Besides, the pEC50 in test [1] is 9.00.

As for `COc1cc(N2CCN(CC(=O)N(C)C)CC2)ccc1Nc1ncc(C(F)(F)F)c(NCc2ccc(F)cc2N(C)S(C)(=O)=O)n1` [Example 82], at PTK2, the pIC50 was 8.70. Also, the pEC50 in test [1] is 9.00.

Regarding `COc1cc(C(=O)NC2CCNCC2)ccc1Nc1ncc(C(F)(F)F)c(NCc2ccc(C)cc2N(C)S(C)(=O)=O)n1` [Example 83], the pIC50 against PTK2 is 8.70. For the same compound, the pEC50 in test [1] was 9.00.

`COc1cc(C(=O)NC2CCC(N3CCOCC3)CC2)c(C)cc1Nc1ncc(C(F)(F)F)c(NCc2ccc(C)cc2N(C)S(C)(=O)=O)n1` (stereo not drawn) [Example 84] had a pIC50 on PTK2 of 8.52. Also, the pEC50 in test [1] is 9.00.

The compound `COc1cc(C(=O)N[C@@H]2CCCN(CC3CC3)C2)ccc1Nc1ncc(C(F)(F)F)c(NCc2ccc(C)cc2N(C)S(C)(=O)=O)n1` [Example 85] gave a pIC50 against PTK2 of 8.52. The pEC50 in test [1] was 9.00.

As to `COc1cc(C(=O)N[C@@H]2CCCN(C3CCC3)C2)ccc1Nc1ncc(C(F)(F)F)c(NCc2ccc(C)cc2N(C)S(C)(=O)=O)n1` [Example 86], the pIC50 at PTK2 is 8.52. Further, the pEC50 in test [1] was 9.00.

`COc1ccc(CNc2nc(Nc3ccc(NC(C)=O)c(OC)c3)ncc2C(F)(F)F)c(N(C)S(C)(=O)=O)c1` [Example 87] showed a pIC50 against PTK2 of 9.00. Moreover, the pEC50 in test [1] was 9.00.

`COc1cc(CNCCN(C)C)ccc1Nc1ncc(C(F)(F)F)c(NCc2ccc(C)cc2N(C)S(C)(=O)=O)n1` [Example 88] had a pIC50 against PTK2 of 8.40. Besides, in test [1], the pEC50 is 9.00.

`COc1cc(CNC(C)C)ccc1Nc1ncc(C(F)(F)F)c(NCc2ccc(C)cc2N(C)S(C)(=O)=O)n1` [Example 89] showed a pIC50 on PTK2 of 8.70. The pEC50 in test [1] is 9.00.

Regarding `COc1cc(C(=O)NC2CCN(C)CC2)c(F)cc1Nc1ncc(C(F)(F)F)c(NCc2ccc(Cl)cc2N(C)S(C)(=O)=O)n1` [Example 90], the negative-log IC50 (pIC50) against PTK2 was 9.00. Besides, the pEC50 in test [1] is 8.70.

On to `Cc1ccc(CNc2nc(Nc3ccc(C(=O)N[C@H]4CC[C@H](N5CCN(CC6CC6)CC5)CC4)cc3F)ncc2C(F)(F)F)c(N(C)S(C)(=O)=O)c1` [Example 91], for which the pIC50 against PTK2 was 8.52. Besides, the pEC50 in test [1] is 8.70.

With `Cc1ccc(CNc2nc(Nc3ccc(C(=O)N[C@H]4CC[C@H](N5CCOCC5)CC4)cc3F)ncc2C(F)(F)F)c(N(C)S(C)(=O)=O)c1` [Example 92], the pIC50 against PTK2 is 9.00. Also, the negative-log EC50 (pEC50) in test [1] is 8.70.

Compound `COc1cc(C(=O)NC2CCN(C3COC3)CC2)c(F)cc1Nc1ncc(C(F)(F)F)c(NCc2ccc(C)cc2N(C)S(C)(=O)=O)n1` [Example 93] gave a pIC50 against PTK2 of 8.30. Moreover, the pEC50 in test [1] was 8.70.

`COc1cc(C(=O)NC2CCN(C3CCOCC3)CC2)ccc1Nc1ncc(C(F)(F)F)c(NCc2ccc(Cl)cc2N(C)S(C)(=O)=O)n1` [Example 94] had a pIC50 at PTK2 of 8.70. Besides, the negative logarithm of the EC50 (pEC50) in test [1] is 8.70.

On to `COc1cc(C(=O)N[C@H]2CC[C@H](N3CCN(CC4CC4)CC3)CC2)ccc1Nc1ncc(C(F)(F)F)c(NCc2ccc(C)cc2N(C)S(C)(=O)=O)n1` [Example 95], for which, at PTK2, the pIC50 is 8.52. For the same compound, the pEC50 in test [1] is 8.70.

As for `COc1cc(C(=O)NC2CC(N3CCN(CC4CC4)CC3)C2)ccc1Nc1ncc(C(F)(F)F)c(NCc2ccc(C)cc2N(C)S(C)(=O)=O)n1` (stereo not drawn) [Example 97], on PTK2, the pIC50 was 8.52. Moreover, in test [1], the pEC50 was 8.70.

In the case of `COc1cc(N2CCN(C3COC3)CC2)ccc1Nc1ncc(C(F)(F)F)c(NCc2ccc(F)cc2N(C)S(C)(=O)=O)n1` [Example 98], the pIC50 on PTK2 was 8.52. Moreover, the pEC50 in test [1] was 8.70.

At PTK2, `COc1cc(N2CCN(C)CC2)ccc1Nc1ncc(C(F)(F)F)c(NCc2ccc(F)cc2N(C)S(C)(=O)=O)n1` [Example 99] had a pIC50 of 9.00. The pEC50 in test [1] was 8.70.

At PTK2, `COc1cc(C(=O)NC2CCN(C)CC2)c(C)cc1Nc1ncc(C(F)(F)F)c(NCc2ccc(C)cc2N(C)S(C)(=O)=O)n1` [Example 100] gave a pIC50 of 9.00. The pEC50 in test [1] was 8.70.

`CCc1cc(C(=O)NC2CCN(CC)CC2)ccc1Nc1ncc(C(F)(F)F)c(NCc2ccc(C)cc2N(C)S(C)(=O)=O)n1` [Example 101] had a pIC50 on PTK2 of 8.70. Besides, the pEC50 in test [1] was 8.70.

With `COc1cc(C(=O)N[C@@H]2CCCN(C)C2)ccc1Nc1ncc(C(F)(F)F)c(NCc2ccc(C)cc2N(C)S(C)(=O)=O)n1` [Example 102], the pIC50 on PTK2 is 8.70. Further, the pEC50 in test [1] is 8.70.

At PTK2, `COc1cc(Nc2ncc(C(F)(F)F)c(NCc3ccc(C)cc3N(C)S(C)(=O)=O)n2)ccc1NC(C)=O` [Example 103] had a pIC50 of 9.10. Further, the pEC50 in test [1] was 8.70.

At PTK2, `CC(=O)Nc1ccc(Nc2ncc(C(F)(F)F)c(NCc3ccc(C)cc3N(C)S(C)(=O)=O)n2)cc1Cl` [Example 104] gave a negative-log IC50 (pIC50) of 8.70. For the same compound, the pEC50 in test [1] was 8.70.

On PTK2, `COc1ccc(CNc2nc(Nc3ccc(NC(C)=O)c(Cl)c3)ncc2C(F)(F)F)c(N(C)S(C)(=O)=O)c1` [Example 105] gave a pIC50 of 8.70. Besides, the pEC50 in test [1] is 8.70.

Regarding `COc1cc(C(=O)N[C@@H]2CCN(C)C[C@@H]2F)ccc1Nc1ncc(C(F)(F)F)c(NCc2ccc(C)cc2N(C)S(C)(=O)=O)n1` [Example 106], on PTK2, the pIC50 is 8.40. The pEC50 in test [1] was 8.70.
